Patent US12077503B2, “Substituted cyclic amides and their use as herbicides” (FMC CORPORATION, priority 2015, dated 2024)

What was measured:
Format in all cases: in vivo
[1] = system: barnyardgrass (Echinochloa crus-galli); test: Test G Pre-Emergence Protocol; details: Echinochloa crus-galli, pre-emergence, 312 h, evaluated after 13 days
In short: (§1)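 Scores are visual damage ratings from 0 (no damage) to 100 (total plant kill), taken 13 days after treatment. Compound was sprayed one day post-sowing at 15.625, 62.5 or 250 g/ha in 50:50 acetone/water with 0.5% Tween 20.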

corn (Zea mays) [2] = test: Test G Pre-Emergence Protocol; details: Zea mays, pre-emergence, 312 h, evaluated after 13 days
In short: as §1

[3] = system: giant foxtail (Setaria faberi); test: Test G Pre-Emergence Protocol; details: Setaria faberi, pre-emergence, 312 h, evaluated after 13 days
In short: as §1

[4] = system: ivy-leaved morning glory (Ipomoea hederacea); test: Test G Pre-Emergence Protocol; details: Ipomoea, pre-emergence, 312 h, evaluated after 13 days
In short: as §1

[5] = system: redroot pigweed (Amaranthus retroflexus); test: Test G Pre-Emergence Protocol; details: Amaranthus retroflexus, pre-emergence, 312 h, evaluated after 13 days
In short: as §1

[6] = system: velvetleaf (Abutilon theophrasti); test: Test G Pre-Emergence Protocol; details: Abutilon theophrasti, pre-emergence, 312 h, evaluated after 13 days
In short: as §1

[7] = system: barnyardgrass (Echinochloa crus-galli); test: Test G Post-Emergence Protocol; details: Echinochloa crus-galli, post-emergence, 312 h
In short: (§2)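 Scores run 0 (no damage) to 100 (total damage) and were taken 13 days after spraying. Plants had been raised in pots for 8 days under glasshouse control (24/16 °C, 14 h photoperiod, 65% humidity) and then treated at 15.625, 62.5 or 250 g/ha.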

corn (Zea mays) [8] = test: Test G Post-Emergence Protocol; details: Zea mays, post-emergence, 312 h
In short: as §2

[9] = system: giant foxtail (Setaria faberi); test: Test G Post-Emergence Protocol; details: Setaria faberi, post-emergence, 312 h
In short: as §2

[10] = system: ivy-leaved morning glory (Ipomoea hederacea); test: Test G Post-Emergence Protocol; details: Ipomoea, post-emergence, 312 h
In short: as §2

[11] = system: redroot pigweed (Amaranthus retroflexus); test: Test G Post-Emergence Protocol; details: Amaranthus retroflexus, post-emergence, 312 h
In short: as §2

[12] = system: velvetleaf (Abutilon theophrasti); test: Test G Post-Emergence Protocol; details: Abutilon theophrasti, post-emergence, 312 h
In short: as §2

Q: CN1C[C@@H](c2ccc(C(F)(F)F)cc2)[C@H](C(=O)Nc2ccnc(Cl)n2)C1=O (racemic) [Compound 1544] was tested. Which pest or weed control at 15.625 g/ha ([1]; 15.625 g ai/ha, read-out: Barnyard grass damage rating (100=total damage to plant; 0=no damage to plant)) did it give?
A: Its pest or weed control at 15.625 g/ha is 0%.

Q: And the pest or weed control at 62.5 g/ha ([1]; 62.5 g ai/ha, 100=total damage to plant, 0=no damage to plant, read-out: plant damage rating, Barnyardgrass)?
A: The pest or weed control at 62.5 g/ha was 0%.

Q: And the pest or weed control at 250 g/ha ([1]; 250 g ai/ha, read-out: Barnyardgrass damage rating (100=total damage to plant; 0=no damage to plant))?
A: The pest or weed control at 250 g/ha was 0%.

Q: What about the plant injury at 15.625 g/ha (corn (Zea mays) [2]; 15.625 g ai/ha, read-out: Corn damage rating (100=total damage to plant; 0=no damage to plant)) of the same compound?
A: The plant injury at 15.625 g/ha was 0%.

Q: And the plant injury at 62.5 g/ha (corn (Zea mays) [2]; 62.5 g ai/ha, 100=total damage to plant, 0=no damage to plant, read-out: plant damage rating, Corn)?
A: Its plant injury at 62.5 g/ha is 0%.

Q: And the plant injury at 250 g/ha (corn (Zea mays) [2]; 250 g ai/ha, read-out: Corn damage rating (100=total damage to plant; 0=no damage to plant))?
A: Its plant injury at 250 g/ha is 0%.

Q: And the pest or weed control at 15.625 g/ha ([3]; 15.625 g ai/ha, read-out: Foxtail, Giant damage rating (100=total damage to plant; 0=no damage to plant))?
A: Its pest or weed control at 15.625 g/ha is 0%.

Q: And the pest or weed control at 62.5 g/ha ([3]; 62.5 g ai/ha, 100=total damage to plant, 0=no damage to plant, read-out: plant damage rating, Foxtail, Giant)?
A: The pest or weed control at 62.5 g/ha was 0%.

Q: And the pest or weed control at 250 g/ha ([3]; 250 g ai/ha, read-out: Foxtail, Giant damage rating (100=total damage to plant; 0=no damage to plant))?
A: Its pest or weed control at 250 g/ha is 0%.

Q: What about the pest or weed control at 15.625 g/ha ([4]; 15.625 g ai/ha, read-out: Morning-glory, Ivy-leaved damage rating (100=total damage to plant; 0=no damage to plant)) of the same compound?
A: The pest or weed control at 15.625 g/ha was 0%.

Q: What about the pest or weed control at 62.5 g/ha ([4]; 62.5 g ai/ha, 100=total damage to plant, 0=no damage to plant, read-out: plant damage rating, Morningglory, Ivy-leaved) of the same compound?
A: The pest or weed control at 62.5 g/ha was 0%.

Q: What about the pest or weed control at 250 g/ha ([4]; 250 g ai/ha, read-out: Morningglory, Ivy-leaved damage rating (100=total damage to plant; 0=no damage to plant)) of the same compound?
A: Its pest or weed control at 250 g/ha is 0%.

Q: What about the pest or weed control at 15.625 g/ha ([5]; 15.625 g ai/ha, read-out: Pigweed, Redroot damage rating (100=total damage to plant; 0=no damage to plant)) of the same compound?
A: The pest or weed control at 15.625 g/ha was 0%.

Q: And the pest or weed control at 62.5 g/ha ([5]; 62.5 g ai/ha, 100=total damage to plant, 0=no damage to plant, read-out: plant damage rating, Pigweed, Redroot)?
A: The pest or weed control at 62.5 g/ha was 0%.

Q: And the pest or weed control at 250 g/ha ([5]; 250 g ai/ha, read-out: Pigweed, Redroot damage rating (100=total damage to plant; 0=no damage to plant))?
A: The pest or weed control at 250 g/ha was 0%.

Q: What about the pest or weed control at 15.625 g/ha ([6]; 15.625 g ai/ha, read-out: Velvetleaf damage rating (100=total damage to plant; 0=no damage to plant)) of the same compound?
A: The pest or weed control at 15.625 g/ha was 0%.

Q: And the pest or weed control at 62.5 g/ha ([6]; 62.5 g ai/ha, 100=total damage to plant, 0=no damage to plant, read-out: plant damage rating, Velvetleaf)?
A: Its pest or weed control at 62.5 g/ha is 0%.

Q: What about the pest or weed control at 250 g/ha ([6]; 250 g ai/ha, read-out: Velvetleaf damage rating (100=total damage to plant; 0=no damage to plant)) of the same compound?
A: Its pest or weed control at 250 g/ha is 0%.

Q: And the pest or weed control at 15.625 g/ha ([7]; 15.625 g ai/ha, evaluated after 13 days (100=total damage to plant; 0=no damage to plant), read-out: Barnyardgrass damage rating)?
A: Its pest or weed control at 15.625 g/ha is 0%.

Q: And the pest or weed control at 62.5 g/ha ([7]; 62.5 g ai/ha, evaluated after 13 days, read-out: Barnyardgrass damage rating (100=total damage to plant; 0=no damage to plant))?
A: The pest or weed control at 62.5 g/ha was 0%.

Q: And the pest or weed control at 250 g/ha ([7]; 250 g ai/ha, evaluated after 13 days, read-out: damage to plant, Barnyardgrass (100=total damage to plant; 0=no damage to plant))?
A: Its pest or weed control at 250 g/ha is 0%.

Q: What about the plant injury at 15.625 g/ha (corn (Zea mays) [8]; 15.625 g ai/ha, evaluated after 13 days (100=total damage to plant; 0=no damage to plant), read-out: Corn damage rating) of the same compound?
A: Its plant injury at 15.625 g/ha is 10%.

Q: And the plant injury at 62.5 g/ha (corn (Zea mays) [8]; 62.5 g ai/ha, evaluated after 13 days, read-out: Corn damage rating (100=total damage to plant; 0=no damage to plant))?
A: Its plant injury at 62.5 g/ha is 10%.

Q: And the plant injury at 250 g/ha (corn (Zea mays) [8]; 250 g ai/ha, evaluated after 13 days, read-out: damage to plant, Corn (100=total damage to plant; 0=no damage to plant))?
A: The plant injury at 250 g/ha was 10%.

Q: What about the pest or weed control at 15.625 g/ha ([9]; 15.625 g ai/ha, evaluated after 13 days (100=total damage to plant; 0=no damage to plant), read-out: Foxtail, Giant damage rating) of the same compound?
A: Its pest or weed control at 15.625 g/ha is 0%.

Q: What about the pest or weed control at 62.5 g/ha ([9]; 62.5 g ai/ha, evaluated after 13 days, read-out: Foxtail, Giant damage rating (100=total damage to plant; 0=no damage to plant)) of the same compound?
A: The pest or weed control at 62.5 g/ha was 0%.

Q: And the pest or weed control at 250 g/ha ([9]; 250 g ai/ha, evaluated after 13 days, read-out: damage to plant, Foxtail, Giant (100=total damage to plant; 0=no damage to plant))?
A: Its pest or weed control at 250 g/ha is 0%.

Q: What about the pest or weed control at 15.625 g/ha ([10]; 15.625 g ai/ha, evaluated after 13 days (100=total damage to plant; 0=no damage to plant), read-out: Morningglory, Ivy-leaved damage rating) of the same compound?
A: The pest or weed control at 15.625 g/ha was 0%.

Q: What about the pest or weed control at 62.5 g/ha ([10]; 62.5 g ai/ha, evaluated after 13 days, read-out: Morningglory, Ivy-leaved damage rating (100=total damage to plant; 0=no damage to plant)) of the same compound?
A: The pest or weed control at 62.5 g/ha was 0%.

Q: And the pest or weed control at 250 g/ha ([10]; 250 g ai/ha, evaluated after 13 days, read-out: damage to plant, Morningglory, Ivy-leaved (100=total damage to plant; 0=no damage to plant))?
A: The pest or weed control at 250 g/ha was 0%.

Q: What about the pest or weed control at 15.625 g/ha ([11]; 15.625 g ai/ha, evaluated after 13 days (100=total damage to plant; 0=no damage to plant), read-out: Pigweed, Redroot damage rating) of the same compound?
A: Its pest or weed control at 15.625 g/ha is 0%.

Q: What about the pest or weed control at 62.5 g/ha ([11]; 62.5 g ai/ha, evaluated after 13 days, read-out: Pigweed, Redroot damage rating (100=total damage to plant; 0=no damage to plant)) of the same compound?
A: The pest or weed control at 62.5 g/ha was 0%.

Q: What about the pest or weed control at 250 g/ha ([11]; 250 g ai/ha, evaluated after 13 days, read-out: damage to plant, Pigweed, Redroot (100=total damage to plant; 0=no damage to plant)) of the same compound?
A: Its pest or weed control at 250 g/ha is 0%.

Q: And the pest or weed control at 15.625 g/ha ([12]; 15.625 g ai/ha, evaluated after 13 days (100=total damage to plant; 0=no damage to plant), read-out: Velvetleaf damage rating)?
A: Its pest or weed control at 15.625 g/ha is 0%.

Q: What about the pest or weed control at 62.5 g/ha ([12]; 62.5 g ai/ha, evaluated after 13 days, read-out: Velvetleaf damage rating (100=total damage to plant; 0=no damage to plant)) of the same compound?
A: Its pest or weed control at 62.5 g/ha is 0%.

Q: And the pest or weed control at 250 g/ha ([12]; 250 g ai/ha, evaluated after 13 days, read-out: damage to plant, Velvetleaf (100=total damage to plant; 0=no damage to plant))?
A: Its pest or weed control at 250 g/ha is 0%.
